Laboratory results published in patent US20230241150A1, “Compositions and Uses Thereof” (Natur-Tech Pharmacal Co., Ltd, priority 2020, published 2023).
Marks after values point to notes of the source that are not given here.

Assays:
[1] = system: PTZ-induced epileptic mice; assay: PTZ-induced epilepsy in mice: seizure stage (Racine scale), convulsions, mortality; assay type: in vivo, ICR mice; conditions: carbamazepine 80 mg/kg intragastric daily 7 days; PTZ 80 mg/kg i.p.; n=12
Source text: As known to those skilled in the art, pentylenetetrazole (PTZ) is a powerful seizure-inducing agent, and its epileptic model is considered to be one of the ideal models for systemic tonic seizures. PTZ itself has no special neurotoxicity, so it is widely used in the study of epilepsy pathogenesis and the screening of anti-epileptic drugs. When PTZ induces epilepsy in mice, its seizures are characterized by clonic seizures in the initial stage, followed by systemic tonic seizures soon afterwards. PTZ is a central nervous system stimulant that acts on GABA-GABAA receptor system. It promotes the enhancement of the excitatory synaptic facilitation and reduces the release of GABA. This in turn reduces the inhibitory ability, increases the sensitivity to convulsions, and increases the excitability of the central nervous system, thereby inducing EP. According to its seizure characteristics, in this experiment, these two seizure forms were used as indicators and combined with the current Racine scale to analyze their epileptic behavior.
(§1) The mice in each group were given intragastric administration daily, for 7 consecutive days. 30 minutes after the last administration, except for the blank control group, the mice in the other groups were injected intraperitoneally with 80 mg/kg of PTZ to induce convulsions in the mice. Each mouse was placed in a separate cage for observation for 30 minutes, and behavioral changes such as stages of seizure, duration, latent period and mortality rate of the mice were recorded.
The Racine scale (see: https://en.wikipedia.org/wiki/Racine_stages) was used to determine the level of epilepsy in mice: • Stage 0: No response; • Stage I: Wet dog shakes, facial twitches, clonus, tremors (such as eye blinking, moustache movements, rhythmic chewing, etc.); • Stage II: Stage I plus rhythmic nodding; • Stage III: Stage II plus forelimb clonus, but no rearing; • Stage IV: Rearing and oblique bilateral falling, or rearing with forelimb clonus; and • Stage V: Imbalance, tipping, twitching of limbs, generalized clonus, generalized tonic seizures, falling, rolling, and loss of postural control.

[2] = system: brain of convulsive mice; assay type: in vivo, ICR mice; conditions: carbamazepine 80 mg/kg intragastric daily 7 days; PTZ 80 mg/kg i.p.; n=12
Procedure: as §1
After completing the behavioral observation determined by the above relevant indicators, experiments were conducted to study the effect of the composition on the contents of NO, Na-K-ATP, Asp, and 5-HT in the brain of convulsive mice. After the behavioral observation was over, the mice were immediately executed, and the brain tissues and the required organs were quickly taken out, weighed, and then the brain tissues were placed in liquid nitrogen and stored in a refrigerator at -80° C. Blood stains on the surface were washed off with pre-cooled saline before measurement. The tissues were then weighed and PBS was added in a volume ratio of 1:9 to fully homogenize the brain tissues. The homogenate was centrifuged at 3000 r/min for 20 minutes. The supernatant was collected as samples for subsequent ELISA test to detect the content of GABA, Glu, NO, Na^+-K^+-ATP, Asp, 5-HT, etc.

SMILES: NC(=O)N1c2ccccc2C=Cc2ccccc21 [Carbamazepine]
- Duration of convulsions [1]: 165.3 ± 32.5 s
- Latent period of convulsions [1]: 365.2 ± 25.6 s
- Morality rates [1]: 16.7%
- Number of convulsions [1]: 8
- number of seizures, Stage I [1]: 0.9±0.4
- number of seizures, Stage II [1]: 1.4±0.8
- number of seizures, Stage III [1]: 1.5±0.8
- number of seizures, Stage IV [1]: 2.1±1.8
- number of seizures, Stage V [1]: 6.3±2.1
- seizure behavior: number of mice at Stage 0 [1]: 1
- seizure behavior: number of mice at Stage I [1]: 3
- seizure behavior: number of mice at Stage II [1]: 3
- seizure behavior: number of mice at Stage III [1]: 2
- seizure behavior: number of mice at Stage IV [1]: 2
- seizure behavior: number of mice at Stage V [1]: 1*
- 5-HT content in the brain [2]: 14.6 ± 2.6 ng/L
- NO content in the brain [2]: 26.4 ± 2.5 µmol/L
- Na-K-ATP content in the brain [2]: 192.1 ± 5.7 ng/L
